Test results from patent US12338266B2 (GENETIC S.P.A., priority 2019, dated 2025).

Experiments:
[1] = tested on: mice with OVA-induced allergic asthma; assay: Plasma IgE levels by ELISA in OVA-sensitized mice (Protocol-1); assay type: in vivo, Balb/c mice
Description: (§1) Balb/c mice (8-9 weeks old, Charles River, Calco, Italy) were housed in the animal care facility at the Department of Pharmacy of the University of Naples. Italy in a controlled environment (temperature 21±2° C. and humidity 60±10%) and provided with standard rodent chow and water. All animals were allowed to acclimate for four days prior to experiments and were subjected to 12 h light-12 h dark schedule. Each mouse was assigned an identity number and randomtzed to different groups so that all experiments were carried out in a blinded manner. The experimental procedures were approved by the Italian Ministry according to International and National law and policies (EU Directive 2010/63/EU and Italian DL 26/2014 for animal experiments, ARRIVE guidelines and the Basel declaration including the 3R concept). Animal studies are reported in compliance with the ARRIVE guidelines. Balb/c mice is the most widely mouse strain used to study asthma-like features in vivo and to investigate the undedying molecular and cellular mechanisms of allergen sensitization. Mice were treated subcutaneously (s.c.) with 0.4 mL (100 μg) of ovalbumin (OVA) complexed with alum (13 mg mL^−1) (OVA group) at day 0 and 7. Chicken egg-white ovalbumin (OVA: grade V. cat. A5503, Sigma Chemical Co., St. Louis, MO) was dissolved in sterile phosphate buffered saline (PBS) solution (250 μg/1 ml) and Al(OH)3 was added (at 13 mg/ml). This mix was used to induce the allergic sensitization of the animals by subcutaneous injection. OVA was dissolved at 3% in sterile PBS solution and this solution was nebulized (as the immunological challenges). At day 21 mice were exposed to OVA challenge for three days and then sacrificed. This experimental procedure induces in the mice an increase in plasma IgE levels and this effect is by itself sufficient to induce a significant increase in bronchial hyper-responsiveness and pulmonary inflammation, typical hallmarks of asthma. A group of animals was treated s.c. with saline (vehicle group). […] Animals were killed at selected time points by overdose of enflurane and bronchi and blood collected.
Blood was collected by intracardiac puncture using citrate as anticoagulant. Plasma was obtained by centrifugation at 800×g at 4′C for 10 minutes and immediately frozen at −80° C. Total IgE levels were measured by means of ELISA using matched antibody pairs (BD Biosciences Pharmingen San Jose, Calif.).

[2] = tested on: mice with OVA-induced allergic asthma; assay: Bronchial reactivity to carbachol, isolated bronchi of OVA-sensitized mice (Protocol-1); assay type: in vivo, Balb/c mice
Description: as §1, with “Italy in a controlled environment (temperature 21±2° C. and humidity 60±10%) and provided with standard rodent chow and water.” left out, “This experimental procedure induces in the mice an increase in plasma IgE levels and this effect is by itself sufficient to induce a significant increase in bronchial hyper-responsiveness and pulmonary inflammation, typical hallmarks of asthma.” left out, “collected. Main bronchi were rapidly dissected and cleaned from fat and connective tissue. […] Results were expressed as dyne/mg tissue. In another set of experiments on bronchi pre-contracted with carbachol and salbutamol-induced relaxation was assessed.” for “collected.”

CC(C)(O)c1ccccc1CCC(SCC1(CC(=O)OCC(=O)[C@@]23O[C@H](C4CCCCC4)O[C@@H]2C[C@H]2[C@@H]4CCC5=CC(=O)C=C[C@]5(C)[C@H]4[C@@H](O)C[C@@]23C)CC1)c1cccc(/C=C/c2ccc3ccc(Cl)cc3n2)c1 (some centres unmarked) [montelukast desisobutyryl-ciclesonide ester]
allergen induced plasma IgE increase ([1]; 0.5, 1 and 2 mg/Kg i.p.): reduces allergen induced IgE increase in a dose-dependent manner | inhibition of allergen induced IgE increase, compared to ciclesonide ([1]; ester 2 mg/kg i.p. vs ciclesonide 1 mg/kg, FIG. 6C): increased inhibitory effect | control of bronchial hyper-reactivity (response to carbachol) ([2]; 0.5, 1 and 2 mg/Kg i.p. 1 hour before OVA challenge, FIG. 5A): good control of bronchial hyper-reactivity at all doses tested | control of hyper-reactivity to carbachol, compared to ciclesonide ([2]; ester 2 mg/kg i.p. vs ciclesonide 1 mg/kg, FIG. 6A): major efficacy in the control of the development of hyper-reactivity to carbachol | effect on bronchial hyper-responsiveness, ester versus montelukast ([2]; ester 2 mg/kg i.p. vs montelukast 1 mg/kg, FIG. 7A): comparable
